Target: Cyclin-dependent kinase 1/G2/mitotic-specific cyclin-B (Marthasterias glacialis, UniProt P15206+Q9DGD3)
Experiment: Kinase Inhibition Assay
Conditions: 30 °C

Cyclin-dependent kinase 1/G2/mitotic-specific cyclin-B, sequence (Q9DGD3 whole entry): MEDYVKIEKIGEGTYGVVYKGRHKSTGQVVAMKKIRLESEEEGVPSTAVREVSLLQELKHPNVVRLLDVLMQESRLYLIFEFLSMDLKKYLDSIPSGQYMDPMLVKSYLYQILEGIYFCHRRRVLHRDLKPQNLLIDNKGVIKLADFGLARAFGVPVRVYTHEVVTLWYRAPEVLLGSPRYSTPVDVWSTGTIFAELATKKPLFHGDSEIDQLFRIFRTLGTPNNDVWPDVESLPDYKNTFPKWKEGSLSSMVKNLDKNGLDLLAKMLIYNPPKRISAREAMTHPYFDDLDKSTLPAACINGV
Cyclin-dependent kinase 1/G2/mitotic-specific cyclin-B, sequence (P15206 whole entry): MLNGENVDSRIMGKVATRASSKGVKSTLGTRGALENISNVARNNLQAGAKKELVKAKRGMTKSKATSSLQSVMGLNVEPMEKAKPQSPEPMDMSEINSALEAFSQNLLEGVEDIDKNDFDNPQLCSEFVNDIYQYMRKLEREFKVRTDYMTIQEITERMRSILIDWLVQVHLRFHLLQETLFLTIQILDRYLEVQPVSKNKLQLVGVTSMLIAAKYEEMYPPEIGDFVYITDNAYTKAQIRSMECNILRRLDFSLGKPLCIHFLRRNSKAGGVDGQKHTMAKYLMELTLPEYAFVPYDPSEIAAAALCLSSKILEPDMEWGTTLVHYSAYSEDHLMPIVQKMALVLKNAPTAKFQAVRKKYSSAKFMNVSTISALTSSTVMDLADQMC

| SMILES | IC50 |
| --- | --- |
| CC(=O)n1nc(N)c2c(-c3ccccc3)c(-c3ccccc3)nnc21 [1-{3-amino-4,5-diphenyl-1H-pyrazolo[3,4-c]pyridazin-1-yl}ethan-1-one] | > 50 µM |
| Nc1nn(CCOCCO)c2nnc(-c3ccccc3)c(-c3ccccc3)c12 [2-[2-(3-Amino-4,5-diphenyl-1H-pyrazolo[3,4-c]pyridazin-1-yl)ethoxy]ethanol] | > 50 µM |
| Nc1nn(COCCO)c2nnc(-c3ccccc3)c(-c3ccccc3)c12 [2-[(3-Amino-4,5-diphenyl-1H-pyrazolo[3,4-c]pyridazin-1-yl)methoxy]ethanol] | > 50 µM |
| CC(=O)Nc1nn(C(C)=O)c2nnc(-c3ccccc3)c(-c3ccccc3)c12 [3-Acetamido-1-acetyl-4,5-diphenyl-1H-pyrazolo[3,4-c]-pyridazine] | > 50 µM |
| Nc1nn(Cc2ccccc2)c2nnc(-c3ccccc3)c(-c3ccccc3)c12 [3-Amino-1-benzyl-4,5-diphenyl-1H-pyrazolo[3,4-c]pyridazine] | > 50 µM |
| CC/N=C(\S)Nc1[nH]nc2nnc(-c3ccco3)cc12 [3-ethyl-1-[5-(furan-2-yl)-1H-pyrazolo[3,4-c]pyridazin-3-yl]thiourea] | > 50 µM |
| Oc1[nH]nc2nnc(-c3ccccc3)c(-c3ccccc3)c12 [4,5-diphenyl-1H-pyrazolo[3,4-c]pyridazin-3-ol] | > 50 µM |
| CC(=O)Nc1n[nH]c2nnc(-c3ccccc3)c(-c3ccccc3)c12 [N-{4,5-diphenyl-1H-pyrazolo[3,4-c]pyridazin-3-yl}acetamide] | > 50 µM |

Same assay, conditions: pH 7.2; 30 °C

| SMILES | IC50 |
| --- | --- |
| Nc1n[nH]c2nnc(-c3ccc(-c4ccccc4)cc3)c(-c3ccc(-c4ccccc4)cc3)c12 [3-Amino-4,5-bis(4-biphenyl)-1H-pyrazolo[3,4-c]pyridazine] | > 50 µM |
| Nc1ccc(-c2nnc3[nH]nc(N)c3c2-c2ccc(N)cc2)cc1 [3-Amino-4,5-bis(p-aminophenyl)-1H-pyrazolo[3,4-c]-pyridazine] | > 50 µM |
| COc1ccc(-c2nnc3[nH]nc(N)c3c2-c2ccc(OC)cc2)cc1 [3-Amino-4,5-bis(p-methoxyphenyl)-1H-pyrazolo[3,4-c]-pyridazine] | 15 µM |
| Nc1n[nH]c2nnc(-c3ccc(C(F)(F)F)cc3)c(-c3ccc(C(F)(F)F)cc3)c12 [3-Amino-4,5-bis(p-trifluoromethylphenyl)-1H-pyrazolo-[3,4-c]pyridazine] | > 50 µM |
| Nc1n[nH]c2nnc(-c3ccc([N+](=O)[O-])cc3)c(-c3ccc([N+](=O)[O-])cc3)c12 [4,5-bis(4-nitrophenyl)-1H-pyrazolo[3,4-c]pyridazin-3-amine] | > 50 µM |
| CC(C)(C)c1ccc(-c2nnc3[nH]nc(N)c3c2-c2ccc(C(C)(C)C)cc2)cc1 [4,5-bis(4-tert-butylphenyl)-1H-pyrazolo[3,4-c]pyridazin-3-amine] | > 50 µM |
| Nc1n[nH]c2nnc(-c3ccccn3)c(-c3ccccn3)c12 [4,5-bis(pyridin-2-yl)-1H-pyrazolo[3,4-c]pyridazin-3-amine] | > 50 µM |
| Cc1n[nH]c2nnc(N)c-2c1C [4,5-dimethyl-1H-pyrazolo[3,4-c]pyridazin-3-amine] | > 50 µM |
| Nc1n[nH]c2nncc(-c3ccccc3)c12 [4-phenyl-1H-pyrazolo[3,4-c]pyridazin-3-amine] | > 50 µM |
| Cc1n[nH]c2nnc(N)c-2c1-c1ccccc1 [5-methyl-4-phenyl-1H-pyrazolo[3,4-c]pyridazin-3-amine] | > 50 µM |
| Nc1n[nH]c2nnc3c4ccccc4c4ccccc4c3c12 [17,18,20,21-tetraazapentacyclo[12.7.0.0^{2,7}.0^{8,13}.0^{15,19}]henicosa-1(21),2,4,6,8,10,12,14,16,19-decaen-16-amine] | > 50 µM |
| Nc1n[nH]c2nnc(-c3ccccc3)cc12 [Pyrazolopyridazine deriv. 1n] | 4 µM |
